Test results as given in the kinase profiling compilation of Christmann-Franck et al. (2016).
Values joined by “and” are separate entries in the source; they are usually repeats but may differ in a detail not shown here. Equal entries are not always repeated.

How the values were obtained:
Assay in all cases: radiometric filter-binding kinase assay, Kinase HotSpot
[1] = molecular target: ACVR1B (human) (UniProt P36896); conditions: compound 0.5 µM; ATP 10 µM
[2] = molecular target: ADRBK1 (human) (UniProt P25098); conditions: compound 0.5 µM; ATP 10 µM
[3] = molecular target: AXL (human) (UniProt P30530); conditions: compound 0.5 µM; ATP 10 µM
[4] = molecular target: BMX (human) (UniProt P51813); conditions: compound 0.5 µM; ATP 10 µM
[5] = molecular target: CAMK4 (human) (UniProt Q16566); conditions: compound 0.5 µM; ATP 10 µM
[6] = molecular target: CDK1 CCNA2 (human) (UniProt P06493+P20248); conditions: compound 0.5 µM
[7] = molecular target: CHEK2 (human) (UniProt O96017); conditions: compound 0.5 µM; ATP 10 µM
[8] = molecular target: CSK (human) (UniProt P41240); conditions: compound 0.5 µM; ATP 10 µM
[9] = molecular target: DAPK3 (human) (UniProt O43293); conditions: compound 0.5 µM; ATP 10 µM
[10] = molecular target: DDR2 (human) (UniProt Q16832); conditions: compound 0.5 µM; ATP 10 µM
[11] = molecular target: DYRK2 (human) (UniProt Q92630); conditions: compound 0.5 µM; ATP 10 µM
[12] = molecular target: DYRK4 (human) (UniProt Q9NR20); conditions: compound 0.5 µM; ATP 10 µM
[13] = molecular target: EPHA1 (human) (UniProt P21709); conditions: compound 0.5 µM; ATP 10 µM
[14] = molecular target: EPHA8 (human) (UniProt P29322); conditions: compound 0.5 µM; ATP 10 µM
[15] = molecular target: GRK4 (human) (UniProt P32298); conditions: compound 0.5 µM; ATP 10 µM
[16] = molecular target: GRK7 (human) (UniProt Q8WTQ7); conditions: compound 0.5 µM; ATP 10 µM
[17] = molecular target: GSG2 (human) (UniProt Q8TF76); conditions: compound 0.5 µM; ATP 10 µM
[18] = molecular target: GSK3B (human) (UniProt P49841); conditions: compound 0.5 µM; ATP 10 µM
[19] = molecular target: ITK (human) (UniProt Q08881); conditions: compound 0.5 µM; ATP 10 µM
[20] = molecular target: MAP2K2 (human) (UniProt P36507); conditions: compound 0.5 µM; ATP 10 µM
[21] = molecular target: MAP3K11 (human) (UniProt Q16584); conditions: compound 0.5 µM; ATP 10 µM
[22] = molecular target: MAP3K5 (human) (UniProt Q99683); conditions: compound 0.5 µM; ATP 10 µM
[23] = molecular target: MAP3K9 (human) (UniProt P80192); conditions: compound 0.5 µM; ATP 10 µM
[24] = molecular target: MAPK1 (human) (UniProt P28482); conditions: compound 0.5 µM; ATP 10 µM
[25] = molecular target: MELK (human) (UniProt Q14680); conditions: compound 0.5 µM; ATP 10 µM
[26] = molecular target: MERTK (human) (UniProt Q12866); conditions: compound 0.5 µM; ATP 10 µM
[27] = molecular target: NEK7 (human) (UniProt Q8TDX7); conditions: compound 0.5 µM; ATP 10 µM
[28] = molecular target: NTRK1 (human) (UniProt P04629); conditions: compound 0.5 µM; ATP 10 µM
[29] = molecular target: PHKG1 (human) (UniProt Q16816); conditions: compound 0.5 µM; ATP 10 µM
[30] = molecular target: PLK1 (human) (UniProt P53350); conditions: compound 0.5 µM; ATP 10 µM
[31] = molecular target: PRKD3 (human) (UniProt O94806); conditions: compound 0.5 µM; ATP 10 µM
[32] = molecular target: PRKG1 (human) (UniProt Q13976); conditions: compound 0.5 µM; ATP 10 µM
[33] = molecular target: PTK6 (human) (UniProt Q13882); conditions: compound 0.5 µM; ATP 10 µM
[34] = molecular target: ROS1 (human) (UniProt P08922); conditions: compound 0.5 µM; ATP 10 µM
[35] = molecular target: STK33 (human) (UniProt Q9BYT3); conditions: compound 0.5 µM; ATP 10 µM
[36] = molecular target: STK39 (human) (UniProt Q9UEW8); conditions: compound 0.5 µM
[37] = molecular target: TEK (human) (UniProt Q02763); conditions: compound 0.5 µM; ATP 10 µM
[38] = molecular target: TGFBR2 (human) (UniProt P37173); conditions: compound 0.5 µM; ATP 10 µM
[39] = molecular target: ULK1 (human) (UniProt O75385); conditions: compound 0.5 µM; ATP 10 µM
[40] = molecular target: ULK2 (human) (UniProt Q8IYT8); conditions: compound 0.5 µM; ATP 10 µM
[41] = molecular target: PRKCZ (human) (UniProt Q05513); conditions: compound 0.5 µM; ATP 10 µM
[42] = molecular target: TAOK2 (human) (UniProt Q9UL54); conditions: compound 0.5 µM; ATP 10 µM

GRK7 (human), sequence (Q8WTQ7 whole entry, looked up): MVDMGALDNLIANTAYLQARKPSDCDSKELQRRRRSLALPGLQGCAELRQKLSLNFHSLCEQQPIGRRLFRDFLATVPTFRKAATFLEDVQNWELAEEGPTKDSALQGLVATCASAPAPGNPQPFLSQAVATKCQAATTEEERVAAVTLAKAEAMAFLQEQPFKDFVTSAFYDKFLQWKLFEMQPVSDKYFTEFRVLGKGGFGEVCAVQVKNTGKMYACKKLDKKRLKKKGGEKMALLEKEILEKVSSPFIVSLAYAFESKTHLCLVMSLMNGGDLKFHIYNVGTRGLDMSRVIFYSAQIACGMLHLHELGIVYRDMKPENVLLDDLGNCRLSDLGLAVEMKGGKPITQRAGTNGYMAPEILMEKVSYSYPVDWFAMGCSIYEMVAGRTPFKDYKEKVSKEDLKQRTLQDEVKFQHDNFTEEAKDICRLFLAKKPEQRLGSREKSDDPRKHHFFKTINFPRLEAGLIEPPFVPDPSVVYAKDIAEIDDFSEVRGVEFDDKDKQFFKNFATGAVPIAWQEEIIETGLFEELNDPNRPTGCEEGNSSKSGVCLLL
NTRK1 (human), sequence (P04629 whole entry, looked up): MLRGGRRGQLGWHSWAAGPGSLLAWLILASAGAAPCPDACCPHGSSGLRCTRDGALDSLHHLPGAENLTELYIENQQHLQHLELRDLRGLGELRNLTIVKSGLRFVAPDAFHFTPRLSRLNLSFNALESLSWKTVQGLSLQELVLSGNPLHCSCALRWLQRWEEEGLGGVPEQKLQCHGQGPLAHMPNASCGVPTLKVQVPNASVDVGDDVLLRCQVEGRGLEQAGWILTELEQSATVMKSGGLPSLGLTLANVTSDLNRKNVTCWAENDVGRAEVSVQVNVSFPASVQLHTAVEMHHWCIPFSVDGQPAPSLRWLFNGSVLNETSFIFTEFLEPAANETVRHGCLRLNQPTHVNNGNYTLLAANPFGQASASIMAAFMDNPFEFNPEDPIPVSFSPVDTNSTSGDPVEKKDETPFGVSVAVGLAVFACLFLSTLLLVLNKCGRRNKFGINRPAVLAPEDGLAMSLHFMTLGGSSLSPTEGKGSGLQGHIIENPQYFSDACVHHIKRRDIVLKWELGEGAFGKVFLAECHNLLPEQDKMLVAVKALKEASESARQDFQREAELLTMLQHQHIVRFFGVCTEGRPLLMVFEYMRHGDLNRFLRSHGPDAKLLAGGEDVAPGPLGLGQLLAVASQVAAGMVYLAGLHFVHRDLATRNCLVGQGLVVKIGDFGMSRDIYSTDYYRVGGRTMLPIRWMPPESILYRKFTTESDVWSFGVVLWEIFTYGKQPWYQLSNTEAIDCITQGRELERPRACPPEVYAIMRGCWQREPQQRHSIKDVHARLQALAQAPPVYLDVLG
ACVR1B (human), sequence (P36896 whole entry, looked up): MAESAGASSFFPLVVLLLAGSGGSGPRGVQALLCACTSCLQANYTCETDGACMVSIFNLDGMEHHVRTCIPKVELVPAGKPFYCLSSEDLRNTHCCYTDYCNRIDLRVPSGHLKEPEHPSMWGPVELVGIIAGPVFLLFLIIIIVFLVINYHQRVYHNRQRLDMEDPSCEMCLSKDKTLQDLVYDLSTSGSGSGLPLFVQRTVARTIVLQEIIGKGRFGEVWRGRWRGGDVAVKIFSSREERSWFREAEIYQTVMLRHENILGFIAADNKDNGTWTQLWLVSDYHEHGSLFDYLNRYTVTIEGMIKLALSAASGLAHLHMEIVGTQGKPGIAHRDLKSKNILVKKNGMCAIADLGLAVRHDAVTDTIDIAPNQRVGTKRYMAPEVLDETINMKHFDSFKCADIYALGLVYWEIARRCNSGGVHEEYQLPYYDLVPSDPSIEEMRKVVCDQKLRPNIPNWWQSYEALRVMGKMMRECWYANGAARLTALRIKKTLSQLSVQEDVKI
PRKG1 (human), sequence (Q13976 whole entry, looked up): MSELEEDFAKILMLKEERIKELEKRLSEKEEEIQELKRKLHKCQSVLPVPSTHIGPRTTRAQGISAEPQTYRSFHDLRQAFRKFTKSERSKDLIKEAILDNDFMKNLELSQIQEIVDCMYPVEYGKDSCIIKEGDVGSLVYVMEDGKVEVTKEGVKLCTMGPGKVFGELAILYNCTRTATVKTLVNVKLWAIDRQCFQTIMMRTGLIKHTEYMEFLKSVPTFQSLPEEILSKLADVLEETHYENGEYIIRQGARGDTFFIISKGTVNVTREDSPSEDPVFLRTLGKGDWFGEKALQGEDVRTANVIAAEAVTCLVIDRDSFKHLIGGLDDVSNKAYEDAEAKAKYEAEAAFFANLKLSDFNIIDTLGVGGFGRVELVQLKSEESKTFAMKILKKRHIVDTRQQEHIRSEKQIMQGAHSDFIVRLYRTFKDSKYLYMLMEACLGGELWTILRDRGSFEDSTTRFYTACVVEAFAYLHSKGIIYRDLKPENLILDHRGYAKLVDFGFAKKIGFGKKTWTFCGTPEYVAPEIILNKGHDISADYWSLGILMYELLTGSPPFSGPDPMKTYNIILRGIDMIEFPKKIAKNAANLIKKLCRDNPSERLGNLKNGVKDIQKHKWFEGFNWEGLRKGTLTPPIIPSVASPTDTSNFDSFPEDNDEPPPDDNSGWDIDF
CAMK4 (human), sequence (Q16566 whole entry, looked up): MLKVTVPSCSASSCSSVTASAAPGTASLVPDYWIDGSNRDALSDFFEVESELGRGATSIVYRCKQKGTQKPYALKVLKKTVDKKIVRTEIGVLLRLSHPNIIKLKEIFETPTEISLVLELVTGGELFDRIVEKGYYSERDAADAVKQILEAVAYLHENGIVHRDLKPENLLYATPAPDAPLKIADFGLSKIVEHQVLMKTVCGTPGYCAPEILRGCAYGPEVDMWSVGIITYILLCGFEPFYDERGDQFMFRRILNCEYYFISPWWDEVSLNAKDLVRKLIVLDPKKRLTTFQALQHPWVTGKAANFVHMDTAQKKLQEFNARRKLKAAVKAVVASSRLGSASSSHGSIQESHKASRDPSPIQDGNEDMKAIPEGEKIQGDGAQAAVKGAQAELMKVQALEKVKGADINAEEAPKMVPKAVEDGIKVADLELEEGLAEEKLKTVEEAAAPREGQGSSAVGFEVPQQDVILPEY
DDR2 (human), sequence (Q16832 whole entry, looked up): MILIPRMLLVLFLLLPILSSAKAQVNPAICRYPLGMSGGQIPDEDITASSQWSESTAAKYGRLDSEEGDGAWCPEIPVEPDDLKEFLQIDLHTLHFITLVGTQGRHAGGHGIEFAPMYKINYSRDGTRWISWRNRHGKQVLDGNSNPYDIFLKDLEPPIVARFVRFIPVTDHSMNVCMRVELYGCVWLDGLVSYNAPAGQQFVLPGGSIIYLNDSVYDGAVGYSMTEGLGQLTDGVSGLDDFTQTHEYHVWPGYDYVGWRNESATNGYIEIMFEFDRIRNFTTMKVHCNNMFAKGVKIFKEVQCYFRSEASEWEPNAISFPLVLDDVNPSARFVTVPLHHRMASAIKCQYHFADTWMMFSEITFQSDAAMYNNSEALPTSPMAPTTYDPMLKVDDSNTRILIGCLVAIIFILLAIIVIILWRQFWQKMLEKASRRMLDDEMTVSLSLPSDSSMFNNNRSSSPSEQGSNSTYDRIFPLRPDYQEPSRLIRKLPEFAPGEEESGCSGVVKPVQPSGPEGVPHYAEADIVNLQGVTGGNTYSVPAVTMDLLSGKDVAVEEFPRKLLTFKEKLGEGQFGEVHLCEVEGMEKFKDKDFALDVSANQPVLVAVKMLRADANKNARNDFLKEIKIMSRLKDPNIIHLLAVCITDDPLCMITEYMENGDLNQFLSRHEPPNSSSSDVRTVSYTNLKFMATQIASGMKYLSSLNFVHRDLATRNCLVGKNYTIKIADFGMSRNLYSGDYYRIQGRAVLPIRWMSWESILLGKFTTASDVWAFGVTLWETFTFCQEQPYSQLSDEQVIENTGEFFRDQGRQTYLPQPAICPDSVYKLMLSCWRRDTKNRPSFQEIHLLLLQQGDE
BMX (human), sequence (P51813 whole entry, looked up): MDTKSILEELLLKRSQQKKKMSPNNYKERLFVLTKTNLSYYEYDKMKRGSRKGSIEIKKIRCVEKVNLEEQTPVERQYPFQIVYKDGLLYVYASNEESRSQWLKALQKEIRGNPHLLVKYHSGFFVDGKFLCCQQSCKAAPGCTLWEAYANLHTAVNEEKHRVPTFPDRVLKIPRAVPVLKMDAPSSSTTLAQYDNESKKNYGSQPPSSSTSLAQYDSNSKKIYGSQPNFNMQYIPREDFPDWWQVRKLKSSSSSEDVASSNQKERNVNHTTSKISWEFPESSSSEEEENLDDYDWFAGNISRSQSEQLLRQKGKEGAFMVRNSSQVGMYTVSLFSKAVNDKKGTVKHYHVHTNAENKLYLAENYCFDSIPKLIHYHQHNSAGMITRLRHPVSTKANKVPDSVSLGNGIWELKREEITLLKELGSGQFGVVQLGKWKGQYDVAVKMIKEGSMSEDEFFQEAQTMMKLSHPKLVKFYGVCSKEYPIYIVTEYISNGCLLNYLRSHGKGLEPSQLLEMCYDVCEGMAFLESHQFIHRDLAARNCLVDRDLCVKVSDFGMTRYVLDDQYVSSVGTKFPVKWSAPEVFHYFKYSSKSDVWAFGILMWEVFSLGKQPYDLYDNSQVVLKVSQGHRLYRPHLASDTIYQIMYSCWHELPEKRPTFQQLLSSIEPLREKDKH
CSK (human), sequence (P41240 whole entry, looked up): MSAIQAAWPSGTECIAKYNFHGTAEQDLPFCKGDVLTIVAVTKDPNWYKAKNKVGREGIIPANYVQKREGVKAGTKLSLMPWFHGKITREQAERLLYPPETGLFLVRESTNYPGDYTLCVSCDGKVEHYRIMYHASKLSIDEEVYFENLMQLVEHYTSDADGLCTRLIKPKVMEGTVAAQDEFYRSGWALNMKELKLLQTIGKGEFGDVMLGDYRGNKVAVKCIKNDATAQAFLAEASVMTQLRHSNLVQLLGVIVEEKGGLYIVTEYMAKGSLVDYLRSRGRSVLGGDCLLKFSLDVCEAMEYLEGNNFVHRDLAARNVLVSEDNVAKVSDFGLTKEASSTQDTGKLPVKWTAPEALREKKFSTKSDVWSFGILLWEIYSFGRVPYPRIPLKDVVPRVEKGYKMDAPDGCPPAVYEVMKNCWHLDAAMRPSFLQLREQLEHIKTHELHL

Work on O=c1cc(N2CCOCC2)oc2c(-c3ccccc3)cccc12 yielded a residual activity [1] of 101%, a residual activity [2] of 106% and a residual activity [3] of 110%. It also gave a residual activity [4] of 96.9%, a residual activity [5] of 104% and a residual activity ([6]; ATP 10 µM) of 92%. It also gave a residual activity [7] of 93.7%, a residual activity [8] of 88.1% and a residual activity [9] of 96.5%. For the same compound, the residual activity [10] was 91.3%, the residual activity [11] was 90.8% and the residual activity [12] was 91.9%. For the same compound, the residual activity [13] was 101%, the residual activity [14] was 103% and the residual activity [15] was 96.5%. For the same compound, the residual activity [16] was 112%, the residual activity [17] was 93.4% and the residual activity [18] was 96.9%. For the same compound, the residual activity [19] was 93.3%, the residual activity [20] was 96.8% and the residual activity [21] was 101%. The residual activity [22] was 96.2%, the residual activity [23] was 108% and the residual activity [24] was 70.3%. For the same compound, the residual activity [25] was 91.3%, the residual activity [26] was 95.2% and the residual activity [27] was 92.1%. It also gave a residual activity [28] of 95%, a residual activity [29] of 90.1% and a residual activity [30] of 67.1%. The residual activity [31] was 92.5%, the residual activity [32] was 104% and 105% and the residual activity [33] was 96%. It also gave a residual activity [34] of 98.4%, a residual activity [35] of 92.1% and a residual activity ([36]; ATP 10 µM) of 78.4%. For the same compound, the residual activity [37] was 89.2%, the residual activity [38] was 142% and the residual activity [39] was 102%. The residual activity [40] was 113%.

For O=c1[nH]c2ccccc2n1C1CCN(Cc2ccc(-c3nc4cc5[nH]cnc5cc4nc3-c3ccccc3)cc2)CC1, the residual activity [1] was 111%, the residual activity [2] was 95.3% and the residual activity [3] was 105%. The residual activity [4] was 108%, the residual activity [5] was 101% and the residual activity [6] was 102%. The residual activity [7] was 100%, the residual activity [8] was 101% and the residual activity [9] was 106%. It also gave a residual activity [10] of 99.2%, a residual activity [11] of 107% and a residual activity [12] of 109%. It also gave a residual activity [13] of 84.4%, a residual activity [14] of 106% and a residual activity [15] of 104%. The residual activity [16] was 98.5%, the residual activity [17] was 106% and the residual activity [18] was 113%. For the same compound, the residual activity [19] was 99.8%, the residual activity [20] was 86.6% and the residual activity [21] was 94.6%. It also gave a residual activity [22] of 93.8%, a residual activity [23] of 93.9% and a residual activity [24] of 112%. The residual activity [25] was 110%, the residual activity [26] was 96.2% and the residual activity [27] was 99.6%. For the same compound, the residual activity [28] was 99.4%, the residual activity [29] was 106% and the residual activity [30] was 109%. For the same compound, the residual activity [41] was 102%, the residual activity [31] was 99.5% and the residual activity [32] was 101% and 103%. For the same compound, the residual activity [33] was 91.1%, the residual activity [34] was 101% and the residual activity [35] was 89.6%. For the same compound, the residual activity [36] was 98.2%, the residual activity [42] was 98.8% and the residual activity [37] was 102%. For the same compound, the residual activity [38] was 95.5% and the residual activity [39] was 96.7%.

O=c1c(-c2ccc(F)cc2)c(-c2ccncc2)[nH]n1-c1ccc(Cl)cc1 showed a residual activity [1] of 123%, a residual activity [2] of 106% and a residual activity [3] of 113%. It also gave a residual activity [4] of 95.8%, a residual activity [5] of 104% and a residual activity ([6]; ATP 10 µM) of 83.1%. For the same compound, the residual activity [7] was 91.4%, the residual activity [8] was 86.1% and the residual activity [9] was 94.7%. For the same compound, the residual activity [10] was 90.6%, the residual activity [11] was 86.9% and the residual activity [12] was 81.5%. It also gave a residual activity [13] of 93.1%, a residual activity [14] of 94.4% and a residual activity [15] of 97.9%. The residual activity [17] was 96.5%, the residual activity [18] was 91.6% and the residual activity [19] was 79.7%. The residual activity [20] was 82.5%, the residual activity [21] was 98% and the residual activity [22] was 115%. The residual activity [23] was 103%, the residual activity [24] was 77.3% and the residual activity [25] was 86.5%. The residual activity [26] was 82.7%, the residual activity [27] was 90.1% and the residual activity [28] was 95.5%. It also gave a residual activity [29] of 94.1%, a residual activity [30] of 98.3% and a residual activity [41] of 99%. The residual activity [31] was 74.5%, the residual activity [32] was 106% and 95.6% and the residual activity [33] was 57.5%. For the same compound, the residual activity [34] was 97.6%, the residual activity [35] was 101% and the residual activity ([36]; ATP 10 µM) was 128%. The residual activity [42] was 101%, the residual activity [37] was 94.4% and the residual activity [38] was 97.7%. The residual activity [39] was 103%.

In the case of O=C(c1ccccc1)c1ccc(N2CCOCC2)cc1O, the residual activity [1] is reported as 104%, the residual activity [2] is reported as 99.6% and the residual activity [3] is reported as 95.1%. The residual activity [4] was 90.4%, the residual activity [5] was 94.7% and the residual activity ([6]; ATP 10 µM) was 103%. The residual activity [7] was 106%, the residual activity [8] was 101% and the residual activity [9] was 100%. It also gave a residual activity [10] of 103%, a residual activity [11] of 96.8% and a residual activity [12] of 94.9%. The residual activity [13] was 89.1%, the residual activity [15] was 104% and the residual activity [16] was 99.6%. For the same compound, the residual activity [17] was 98.5%, the residual activity [18] was 118% and the residual activity [19] was 99.5%. For the same compound, the residual activity [20] was 101%, the residual activity [21] was 93.2% and the residual activity [22] was 97.8%. For the same compound, the residual activity [23] was 112%, the residual activity [24] was 96.7% and the residual activity [25] was 103%. It also gave a residual activity [26] of 94.5%, a residual activity [27] of 104% and a residual activity [28] of 99%. For the same compound, the residual activity [29] was 97.4%, the residual activity [30] was 104% and the residual activity [41] was 85%. The residual activity [31] was 96.1%, the residual activity [32] was 86.8% and 96.4% and the residual activity [33] was 98.2%. The residual activity [34] was 96%, the residual activity [35] was 108% and the residual activity ([36]; ATP 10 µM) was 94.8%. It also gave a residual activity [42] of 107%, a residual activity [38] of 109% and a residual activity [39] of 98.9%. The residual activity [40] was 96.7%.

N/C(=N\N=C/c1ccc(-c2cccc([N+](=O)[O-])c2)o1)N[N+](=O)[O-] was tested, and the residual activity [1] was 101%, the residual activity [2] was 98.9% and the residual activity [3] was 100%. The residual activity [4] was 90.1%, the residual activity [5] was 95.2% and the residual activity ([6]; ATP 10 µM) was 100%. For the same compound, the residual activity [7] was 104%, the residual activity [8] was 98.5% and the residual activity [9] was 103%. It also gave a residual activity [10] of 101%, a residual activity [11] of 93.1% and a residual activity [12] of 92.7%. It also gave a residual activity [13] of 88.9%, a residual activity [14] of 102% and a residual activity [15] of 95.5%. For the same compound, the residual activity [16] was 97%, the residual activity [17] was 89.1% and the residual activity [18] was 117%. The residual activity [19] was 99.5%, the residual activity [20] was 78.2% and the residual activity [21] was 99.4%. It also gave a residual activity [22] of 92.5%, a residual activity [24] of 99.7% and a residual activity [25] of 102%. For the same compound, the residual activity [26] was 92.3%, the residual activity [27] was 102% and the residual activity [28] was 96%. The residual activity [29] was 101%, the residual activity [30] was 98.6% and the residual activity [41] was 90.1%. The residual activity [31] was 93.9%, the residual activity [32] was 87.4% and 95.8% and the residual activity [33] was 101%. The residual activity [34] was 97.5%, the residual activity [35] was 102% and the residual activity ([36]; ATP 10 µM) was 91.8%. The residual activity [42] was 95.3%, the residual activity [37] was 99.6% and the residual activity [38] was 123%. For the same compound, the residual activity [39] was 93.7% and the residual activity [40] was 87.3%.
